Laboratory results taken from patent US20160109430A1, “METHODS FOR DRUG DISCOVERY” (Memorial Sloan-Kettering Cancer Center, priority 2014, published 2016).

Columns and labels:
Type in all cases: cell-based
U2OS cells = assay: Senescence analysis (SA-β-gal) in U2OS cells
Experimental: (§1) Cells were plated at a concentration of 25,000 per well in a 4-well chamber slides (Lab-Tek) and treated for seven days with drug and stained for senescence-associated β-galactosidase (Cell Signaling kit #9860). Cell number was quantitated by DAPI staining and β-galactosidase staining quantitated as a proportion of total cells.

LS8817 cells [1] = assay: ATRX foci per cell by immunofluorescence in LS8817 cells
Experimental: (§2) Cells were washed twice with PBS and fixed with 4% paraformaldehyde at room temperature for 20 minutes. Cells were again washed twice with PBS and treated with 0.5% triton X-100 in PBS. Cells were again washed twice with PBS and blocked in 5% BSA in PBS for 30 minutes at room temperature. Cells were incubated with anti-ATRX antibody, obtained from Bethyl, Cat No. A301-045A, diluted at 1:2000 in PBS (stock is provided at 1 mg/ml) overnight at 4 degrees Celsius. The following day, cells were washed twice with PBS and incubated with Alexa Fluor-488 anti-rabbit secondary diluted at 1:500 in PBS (stock was provided at 2 mg/ml) for one hour at room temperature. Cells were washed twice with PBS and incubated with 0.1 μg/ml DAPI for 5 minutes at room temperature. Cells were washed three times with PBS and slides were mounted in Vectashield fluorescence mounting media. Slides were imaged using a Zeiss Axioplan 2 Upright Microscope.

LS8817 cells [2] = assay: Senescence-associated β-galactosidase / senescence analysis in LS8817 cells; conditions: for accumulation of SA-β-gal staining: 100 μM doxorubicin for five days
LS8107 cells [3] = assay: ATRX foci per cell by immunofluorescence in LS8107 cells; conditions: PD0332991 followed by shMDM2, compared to untreated or PD0332991 alone
Experimental: as §2

LS8107 cells [4] = assay: Senescence analysis (SA-β-gal) in LS8107 cells
Experimental: as §1

Structure (SMILES) | cell state (quiescent or senescent) on CDK4 inhibition, by SA-β-gal (U2OS cells; U2OS cells expressing exogenous ATRX) | cell state (quiescent or senescent) on CDK4 inhibition (U2OS cells; U2OS cells that do not express endogenous ATRX) | average number of ATRX foci per cell (LS8817 cells [1]; LS8817 cells, PD0332991 1 μM or 0.1 μM) | number of ATRX foci per cell (LS8817 cells [1]; LS8817 cells, PD0332991 in the presence of exogenous MDM2 (tet-on-MDM2-Flag, doxycycline), compared to PD0332991 alone) | cell state (quiescent or senescent) (LS8817 cells [2]; LS8817 cells, 1 μM or 0.1 μM) | number of ATRX foci per cell (LS8107 cells [3]) | cell state (quiescent or senescent) (LS8107 cells [4]; CDK4 inhibitor alone) | accumulation of SA-β-gal (LS8107 cells [4]; PD0332991 followed by shMDM2) | ATRX foci in cells expressing shATRX (LS8817 cells [1]; LS8817 cells expressing shATRX, 100 μM doxorubicin for five days) | average number of ATRX foci per cell (LS8817 cells [1]; LS8817 cells, 100 μM doxorubicin for five days, control cells about 8) | accumulation of SA-β-gal staining (LS8817 cells [2]; LS8817 cells expressing shATRX) | accumulation of SA-β-gal staining (LS8817 cells [2]; LS8817 cells expressing shSCR)
CC(=O)c1c(C)c2cnc(Nc3ccc(N4CCNCC4)cn3)nc2n(C2CCCC2)c1=O [PD0332991] | entering a senescent state | entering a quiescent state versus a senescent state | significant increase | prevented an increase | enter a senescent state | significant increase | entered a quiescent state | accumulation of SA-β-gal |  |  |  | 
COc1cccc2c1C(=O)c1c(O)c3c(c(O)c1C2=O)C[C@@](O)(C(=O)CO)C[C@@H]3O[C@H]1C[C@H](N)[C@H](O)[C@H](C)O1 [doxorubicin] |  |  |  |  |  |  |  |  | not observed | about 35 | did not significantly accumulate | significantly accumulated
